According to ChEMBL document CHEMBL2331514, “Structure-based design and synthesis of novel pseudosaccharine derivatives as antiproliferative agents and kinase inhibitors” (Eur J Med Chem, 2013):

How the values were obtained:
[1] = Partition coefficient, log P of the compound; type: physicochemical; conditions: octanol/water
T47D = experiment: Cytotoxicity against human T47D cells assessed as growth inhibition at 10 uM after 48 hrs by SRB assay; type: functional; conditions: read-out: GI
BT-549 = experiment: Cytotoxicity against human BT549 cells assessed as growth inhibition at 10 uM after 48 hrs by SRB assay; type: functional; conditions: BT-549, 48 h, read-out: GI
MDA-MB-231 = experiment: Cytotoxicity against human MDA-MB-231 cells assessed as growth inhibition at 10 uM after 48 hrs by SRB assay; type: functional; conditions: MDA-MB-231, 48 h, read-out: GI
DU-145 = experiment: Cytotoxicity against human DU145 cells assessed as growth inhibition at 10 uM after 48 hrs by SRB assay; type: functional; conditions: DU-145, 48 h, read-out: GI
MCF7 = experiment: Cytotoxicity against human MCF7 cells assessed as growth inhibition at 10 uM after 48 hrs by SRB assay; type: functional; conditions: MCF7, 48 h, read-out: GI
UO-31 = experiment: Cytotoxicity against human UO31 cells assessed as growth inhibition at 10 uM after 48 hrs by SRB assay; type: functional; conditions: UO-31, 48 h, read-out: GI
TK-10 = experiment: Cytotoxicity against human TK10 cells assessed as growth inhibition at 10 uM after 48 hrs by SRB assay; type: functional; conditions: TK-10, 48 h, read-out: GI
SN12C = experiment: Cytotoxicity against human SN12C cells assessed as growth inhibition at 10 uM after 48 hrs by SRB assay; type: functional; conditions: read-out: GI
CAKI-1 = experiment: Cytotoxicity against human Caki1 cells assessed as growth inhibition at 10 uM after 48 hrs by SRB assay; type: functional; conditions: CAKI-1, 48 h, read-out: GI
ACHN = experiment: Cytotoxicity against human ACHN cells assessed as growth inhibition at 10 uM after 48 hrs by SRB assay; type: functional; conditions: read-out: GI
786-0 = experiment: Cytotoxicity against human 786-0 cells assessed as growth inhibition at 10 uM after 48 hrs by SRB assay; type: functional; conditions: 786-0, 48 h, read-out: GI
SK-OV-3 = experiment: Cytotoxicity against human SKOV3 cells assessed as growth inhibition at 10 uM after 48 hrs by SRB assay; type: functional; conditions: SK-OV-3, 48 h, read-out: GI
OVCAR-8 = experiment: Cytotoxicity against human OVCAR8 cells assessed as growth inhibition at 10 uM after 48 hrs by SRB assay; type: functional; conditions: OVCAR-8, 48 h, read-out: GI
OVCAR-3 = experiment: Cytotoxicity against human OVCAR3 cells assessed as growth inhibition at 10 uM after 48 hrs by SRB assay; type: functional; conditions: OVCAR-3, 48 h, read-out: GI
UACC-257 = experiment: Cytotoxicity against human UACC257 cells assessed as growth inhibition at 10 uM after 48 hrs by SRB assay; type: functional; conditions: UACC-257, 48 h, read-out: GI
SK-MEL-5 = experiment: Cytotoxicity against human SK-MEL-5 cells assessed as growth inhibition at 10 uM after 48 hrs by SRB assay; type: functional; conditions: SK-MEL-5, 48 h, read-out: GI
MDA-MB-435 = experiment: Cytotoxicity against human MDA-MB-435 cells assessed as growth inhibition at 10 uM after 48 hrs by SRB assay; type: functional; conditions: MDA-MB-435, 48 h, read-out: GI
M14 = experiment: Cytotoxicity against human M14 cells assessed as growth inhibition at 10 uM after 48 hrs by SRB assay; type: functional; conditions: M14, 48 h, read-out: GI
Malme-3M = experiment: Cytotoxicity against human MALME-3M cells assessed as growth inhibition at 10 uM after 48 hrs by SRB assay; type: functional; conditions: read-out: GI
LOX IMVI = experiment: Cytotoxicity against human LOXIMVI cells assessed as growth inhibition at 10 uM after 48 hrs by SRB assay; type: functional; conditions: read-out: GI
U-251 = experiment: Cytotoxicity against human U251 cells assessed as growth inhibition at 10 uM after 48 hrs by SRB assay; type: functional; conditions: U-251, 48 h, read-out: GI
SNB-75 = experiment: Cytotoxicity against human SNB75 cells assessed as growth inhibition at 10 uM after 48 hrs by SRB assay; type: functional; conditions: SNB-75, 48 h, read-out: GI
SF-539 = experiment: Cytotoxicity against human SF539 cells assessed as growth inhibition at 10 uM after 48 hrs by SRB assay; type: functional; conditions: SF-539, 48 h, read-out: GI
SF-268 = experiment: Cytotoxicity against human SF268 cells assessed as growth inhibition at 10 uM after 48 hrs by SRB assay; type: functional; conditions: SF-268, 48 h, read-out: GI
HCT-15 = experiment: Cytotoxicity against human HCT15 cells assessed as growth inhibition at 10 uM after 48 hrs by SRB assay; type: functional; conditions: HCT-15, 48 h, read-out: GI
COLO 205 = experiment: Cytotoxicity against human COLO205 cells assessed as growth inhibition at 10 uM after 48 hrs by SRB assay; type: functional; conditions: COLO 205, 48 h, read-out: GI
NCI-H522 = experiment: Cytotoxicity against human NCI-H522 cells assessed as growth inhibition at 10 uM after 48 hrs by SRB assay; type: functional; conditions: NCI-H522, 48 h, read-out: GI
NCI-H460 = experiment: Cytotoxicity against human NCI-H460 cells assessed as growth inhibition at 10 uM after 48 hrs by SRB assay; type: functional; conditions: NCI-H460, 48 h, read-out: GI
NCI-H322M = experiment: Cytotoxicity against human NCI-H322M cells assessed as growth inhibition at 10 uM after 48 hrs by SRB assay; type: functional; conditions: read-out: GI
NCI-H23 = experiment: Cytotoxicity against human NCI-H23 cells assessed as growth inhibition at 10 uM after 48 hrs by SRB assay; type: functional; conditions: NCI-H23, 48 h, read-out: GI
HOP-92 = experiment: Cytotoxicity against human HOP92 cells assessed as growth inhibition at 10 uM after 48 hrs by SRB assay; type: functional; conditions: HOP-92, 48 h, read-out: GI
HOP-62 = experiment: Cytotoxicity against human HOP62 cells assessed as growth inhibition at 10 uM after 48 hrs by SRB assay; type: functional; conditions: HOP-62, 48 h, read-out: GI
[2] = Cytotoxicity against human EKVX cells assessed as growth inhibition at 10 uM after 48 hrs by SRB assay; type: functional; conditions: read-out: GI
SR = experiment: Cytotoxicity against human SR cells assessed as growth inhibition at 10 uM after 48 hrs by SRB assay; type: functional; conditions: read-out: GI
RPMI-8226 = experiment: Cytotoxicity against human RPMI8226 cells assessed as growth inhibition at 10 uM after 48 hrs by SRB assay; type: functional; conditions: RPMI-8226, 48 h, read-out: GI
MOLT-4 = experiment: Cytotoxicity against human MOLT4 cells assessed as growth inhibition at 10 uM after 48 hrs by SRB assay; type: functional; conditions: MOLT-4, 48 h, read-out: GI
HL-60(TB) = experiment: Cytotoxicity against human HL-60(TB) cells assessed as growth inhibition at 10 uM after 48 hrs by SRB assay; type: functional; conditions: HL-60, 48 h, read-out: GI
CCRF-CEM = experiment: Cytotoxicity against human CCRF-CEM cells assessed as growth inhibition at 10 uM after 48 hrs by SRB assay; type: functional; conditions: read-out: GI

SMILES	logP [1]	inhibition of growth at 10 µM (T47D) [%]	inhibition of growth at 10 µM (BT-549) [%]	inhibition of growth at 10 µM (MDA-MB-231) [%]	inhibition of growth at 10 µM (DU-145) [%]	inhibition of growth at 10 µM (MCF7) [%]	inhibition of growth at 10 µM (UO-31) [%]	inhibition of growth at 10 µM (TK-10) [%]	inhibition of growth at 10 µM (SN12C) [%]	inhibition of growth at 10 µM (CAKI-1) [%]	inhibition of growth at 10 µM (ACHN) [%]	inhibition of growth at 10 µM (786-0) [%]	inhibition of growth at 10 µM (SK-OV-3) [%]	inhibition of growth at 10 µM (OVCAR-8) [%]	inhibition of growth at 10 µM (OVCAR-3) [%]	inhibition of growth at 10 µM (UACC-257) [%]	inhibition of growth at 10 µM (SK-MEL-5) [%]	inhibition of growth at 10 µM (MDA-MB-435) [%]	inhibition of growth at 10 µM (M14) [%]	inhibition of growth at 10 µM (Malme-3M) [%]	other results
O=C(Nc1ccccc1)Nc1ccc(NC2=NS(=O)(=O)c3ccccc32)cc1	2.23	10	3	11	-1	10	7	-12	0	2	-8	3	-7	-5	-11	-1	6	0	-3	-1	inhibition of growth at 10 µM (LOX IMVI): 2%; inhibition of growth at 10 µM (U-251): 1%; inhibition of growth at 10 µM (SNB-75): 19%; inhibition of growth at 10 µM (SF-539): 5%; inhibition of growth at 10 µM (SF-268): -1%; inhibition of growth at 10 µM (HCT-15): -7%; inhibition of growth at 10 µM (COLO 205): -19%; inhibition of growth at 10 µM (NCI-H522): -6%; inhibition of growth at 10 µM (NCI-H460): -3%; inhibition of growth at 10 µM (NCI-H322M): -8%; inhibition of growth at 10 µM (NCI-H23): 3%; inhibition of growth at 10 µM (HOP-92): 1%; inhibition of growth at 10 µM (HOP-62): -11%; inhibition of growth at 10 µM [2]: 0%; inhibition of growth at 10 µM (SR): 3%; inhibition of growth at 10 µM (RPMI-8226): -2%; inhibition of growth at 10 µM (MOLT-4): 4%; inhibition of growth at 10 µM (HL-60(TB)): 5%; inhibition of growth at 10 µM (CCRF-CEM): 5%
O=C(Nc1ccc(Cl)cc1)Nc1ccc2c(c1)C(Nc1ccc(Cl)cc1Cl)=NS2(=O)=O	4.24	87	49	43	71	79	70	57	67	83	85	73	15	65	98	38	51	65	63	58	inhibition of growth at 10 µM (LOX IMVI): 72%; inhibition of growth at 10 µM (U-251): 73%; inhibition of growth at 10 µM (SNB-75): 30%; inhibition of growth at 10 µM (SF-539): 42%; inhibition of growth at 10 µM (SF-268): 40%; inhibition of growth at 10 µM (HCT-15): 76%; inhibition of growth at 10 µM (COLO 205): 77%; inhibition of growth at 10 µM (NCI-H522): 77%; inhibition of growth at 10 µM (NCI-H460): 87%; inhibition of growth at 10 µM (NCI-H322M): 27%; inhibition of growth at 10 µM (NCI-H23): 92%; inhibition of growth at 10 µM (HOP-92): 82%; inhibition of growth at 10 µM (HOP-62): 33%; inhibition of growth at 10 µM [2]: 71%; inhibition of growth at 10 µM (SR): 60%; inhibition of growth at 10 µM (RPMI-8226): 98%; inhibition of growth at 10 µM (MOLT-4): 73%; inhibition of growth at 10 µM (HL-60(TB)): 74%; inhibition of growth at 10 µM (CCRF-CEM): 82%
Cc1ccc(NC2=NS(=O)(=O)c3ccc(NC(=O)CCC(=O)O)cc32)cc1	1	5	-8	6	-11	8	12	-16	6	1	-5	2	-11	-10	-16	-25	5	0	-2	-1	inhibition of growth at 10 µM (LOX IMVI): 1%; inhibition of growth at 10 µM (U-251): 0%; inhibition of growth at 10 µM (SNB-75): 21%; inhibition of growth at 10 µM (SF-539): 1%; inhibition of growth at 10 µM (SF-268): -10%; inhibition of growth at 10 µM (HCT-15): -13%; inhibition of growth at 10 µM (COLO 205): -11%; inhibition of growth at 10 µM (NCI-H522): -8%; inhibition of growth at 10 µM (NCI-H460): -7%; inhibition of growth at 10 µM (NCI-H322M): 2%; inhibition of growth at 10 µM (NCI-H23): 1%; inhibition of growth at 10 µM (HOP-92): 9%; inhibition of growth at 10 µM (HOP-62): -5%; inhibition of growth at 10 µM [2]: -4%; inhibition of growth at 10 µM (SR): -5%; inhibition of growth at 10 µM (RPMI-8226): 7%; inhibition of growth at 10 µM (MOLT-4): -3%; inhibition of growth at 10 µM (HL-60(TB)): 9%; inhibition of growth at 10 µM (CCRF-CEM): 2%
